Measured values taken from article PMC8206078, “Identification of pyrogallol as a warhead in design of covalent inhibitors for the SARS-CoV-2 3CL protease” (Nature Communications, 2021).
Where “and” joins values, the source holds several entries; their conditions need not be identical. Identical values can stand only once. Like-named read-outs stand apart in the source and are kept apart here.

Tests used:
[1] = molecular target: T1, SARS-CoV-2 3CLpro (Severe acute respiratory syndrome coronavirus 2, UniProt P0DTD1); assay: biochemical; format: biochemical
[2] = molecular target: SARS-CoV-2 3CLpro / HEK293T lysate (Severe acute respiratory syndrome coronavirus 2, UniProt P0DTD1); format: binding
[3] = molecular target: T1, SARS-CoV-2 3CLpro
[4] = molecular target: T1, SARS-CoV-2 3CLpro; details: read-out: KI
[5] = read-out: Inhibition (%) @10 μM
[6] = 6.25 µM, read-out: inhibition ratio (%)
[7] = 25 µM, read-out: inhibition ratio (%)
[8] = 50 µM, read-out: inhibition ratio (%)

Molecule `O=c1c(-c2ccc(O[C@@H]3O[C@H](CO)[C@@H](O)[C@H](O)[C@H]3O)cc2)coc2cc(O)cc(O)c12` [Sophoricoside] has an inhibition at 10 µM [1, 5] of 10%.
With `O=c1c(-c2ccc(O)cc2)coc2cc(O)cc(O)c12` [Genistein] the inhibition at 10 µM [1, 5] was 15%.
For `O=c1c(O)c(-c2cc(O)c(O)c(O)c2)oc2cc(O)cc(O)c12` [myricetin, 3,5,7,3′,4′,5′-hexahydroxyflavone], the “fluorescent labeling in mixture of HEK293T lysate and recombinant 3CLpro” value [2] was “only significantly reduced the fluorescent labeling of the protease”, the “fluorescent labeling of recombinant SARS-CoV-2 3CLpro by maleimide probe” value [2] was “completely block” and the “increase in molecular weight of the protease (covalent labeling)” value [3] was 316 Da. The KI (inactivation) [4] was 16.9 µM and 15.2 µM and 15 µM, the “Inhibition (%) @10 μM” value ([1]; 10 µM) was > 90% and the inhibition at 10 µM [1, 5] was 97.6%. For the same molecule, the inhibition at 0.3125 µM ([1]; read-out: inhibition ratio (%)) was 27.5%, the inhibition at 0.625 µM ([1]; read-out: inhibition ratio (%)) was 44.1% and the inhibition at 5 µM ([1]; read-out: inhibition ratio (%)) was 96.1%. It also gave an inhibition at 10 µM ([1]; read-out: inhibition ratio (%)) of 98.2%, an inhibition at 20 µM ([1]; read-out: inhibition ratio (%)) of 97.9% and an inhibition at 40 µM ([1]; read-out: inhibition ratio (%)) of 98.8%. For the same molecule, the inhibition at […] ([1]; read-out: inhibition ratio (%)) was 65.6% and 85.5%.
For `COc1ccc(-c2oc3cc(O)cc(O)c3c(=O)c2O)cc1` [Kaempferide], the inhibition at 10 µM [1, 5] was 8.1%.
For `COc1ccc(-c2cc(=O)c3c(O)cc(O)cc3o2)cc1O` [Diosmetin], the inhibition at 10 µM [1, 5] was 11.3%.
(+)-Catechin was tested, and the “Inhibition (%) @10 μM” value [1] was 14.0%.
`COc1cc(O)c2c(=O)c(O)c(-c3cc(O)c(O)c(O)c3)oc2c1` [compound 3, 7-O-methyl myricetin] showed an IC50 ([1]; IC50 (µM)) of 0.31 µM, an inhibition at 0.15625 µM ([1]; read-out: inhibition ratio (%)) of 28.3% and an inhibition at 0.3125 µM ([1]; read-out: inhibition ratio (%)) of 43.1%. The inhibition at 5 µM ([1]; read-out: inhibition ratio (%)) was 96.8%, the inhibition at 10 µM ([1]; read-out: inhibition ratio (%)) was 98.5% and the inhibition at […] ([1]; read-out: inhibition ratio (%)) was 89.4% and 96.2%.
With `COc1ccc(-c2coc3cc(O)ccc3c2=O)cc1` [Formononetin] the inhibition at 10 µM [1, 5] was 16%.
`O=C1c2c(O)cc(OP(=O)(Oc3ccccc3)Oc3ccccc3)cc2O[C@H](c2cc(O)c(O)c(O)c2)[C@H]1O` [compound 10] was tested, and the inhibition at 6.25 µM [1, 6] was 81.5%, the inhibition at 25 µM [1, 7] was 98.9% and the inhibition at 50 µM [1, 8] was 98.6%. For the same molecule, the inhibition at 100 µM ([1]; 100 µM, read-out: inhibition ratio (%)) was 99.4% and the inhibition at 200 µM ([1]; 200 µM, read-out: inhibition ratio (%)) was 99.6%.
`COc1cc(O)c2c(c1)O[C@H](c1cc(O)c(O)c(O)c1)[C@@H](O)C2=O` [compound 7, 7-O-methyl dihydromyricetin] was tested, and the IC50 ([1]; IC50 (µM)) was 270 nM (2×) and 240 nM, the inhibition at 0.0488281 µM ([1]; read-out: inhibition ratio (%)) was 8.15% and the inhibition at 0.0976562 µM ([1]; read-out: inhibition ratio (%)) was 25.7%. For the same molecule, the inhibition at 0.390625 µM ([1]; read-out: inhibition ratio (%)) was 54.6%, the inhibition at 0.78125 µM ([1]; read-out: inhibition ratio (%)) was 84.2% and the inhibition at 1.5625 µM ([1]; read-out: inhibition ratio (%)) was 97.1%. It also gave an inhibition at 3.125 µM ([1]; read-out: inhibition ratio (%)) of 94.4%, an inhibition at 6.25 µM ([1]; read-out: inhibition ratio (%)) of 98.2% and an inhibition at 25 µM ([1]; read-out: inhibition ratio (%)) of 94.6%. For the same molecule, the inhibition at 50 µM ([1]; read-out: inhibition ratio (%)) was 95.6% and the inhibition at […] ([1]; read-out: inhibition ratio (%)) was 36.2% and 99.3%.
For Biochanin A, the “Inhibition (%) @10 μM” value [1] was 5.0%.
`O=C1C[C@@H](c2ccc(O)c(O)c2)Oc2cc(O)cc(O)c21` [Eriodictyol] was tested, and the inhibition at 10 µM [1, 5] was 34.5%.
With `O=c1cc(-c2ccc(O)c(O)c2)oc2cc(O)cc(O)c12` [Luteolin] the “Inhibition (%) @10 μM” value ([1]; 10 µM) was -4.1%.
`O=c1c(-c2ccc(O)cc2)coc2cc(O[C@@H]3O[C@H](CO)[C@@H](O)[C@H](O)[C@H]3O)cc(O)c12` [Genistin] gave an inhibition at 10 µM [1, 5] of 25.5%.
Molecule `O=c1cc(-c2ccc(O)cc2)oc2cc(O)cc(O)c12` [Apigenin] has an inhibition at 10 µM [1, 5] of -1%.
In the case of `O=c1c(O)c(-c2cc(O)c(O)c(O)c2)oc2cc(OP(=O)(Oc3ccccc3)Oc3ccccc3)cc(O)c12` [compound 9], the inhibition at 0.78125 µM ([1]; 0.78125 µM, read-out: inhibition ratio (%)) is reported as 10.1%, the inhibition at 3.125 µM ([1]; 3.125 µM, read-out: inhibition ratio (%)) is reported as 57.7% and the inhibition at 6.25 µM [1, 6] is reported as 78.1%. It also gave an inhibition at 25 µM [1, 7] of 96% and an inhibition at 50 µM [1, 8] of 99.4%.
With `O=C1c2c(O)cc(O)cc2O[C@H](c2cc(O)c(O)c(O)c2)[C@H]1O` [dihydromyricetin] the “Inhibition (%) @10 μM” value ([1]; 10 µM) was > 90%, the inhibition at 10 µM [1, 5] was 93.8% and the inhibition at 0.3125 µM ([1]; read-out: inhibition ratio (%)) was 13%. For the same molecule, the inhibition at 0.390625 µM ([1]; read-out: inhibition ratio (%)) was 15%, the inhibition at 0.625 µM ([1]; read-out: inhibition ratio (%)) was 24.1% and the inhibition at 0.78125 µM ([1]; read-out: inhibition ratio (%)) was 39.3%. It also gave an inhibition at 1.5625 µM ([1]; read-out: inhibition ratio (%)) of 58.9%, an inhibition at 3.125 µM ([1]; read-out: inhibition ratio (%)) of 82.7% and an inhibition at 5 µM ([1]; read-out: inhibition ratio (%)) of 87.5%. It also gave an inhibition at 6.25 µM ([1]; read-out: inhibition ratio (%)) of 95%, an inhibition at 10 µM ([1]; read-out: inhibition ratio (%)) of 97.8% and an inhibition at 20 µM ([1]; read-out: inhibition ratio (%)) of 99.5%. The inhibition at 40 µM ([1]; read-out: inhibition ratio (%)) was 98.8% and the inhibition at […] ([1]; read-out: inhibition ratio (%)) was 45.2% and 85% and 98.5%.
With `O=C1c2c(O)cc(O)cc2OC(c2ccc(O)c(O)c2)C1O` (stereo not shown) [Taxifolin] the inhibition at 10 µM [1, 5] was 28%.
`COc1ccc([C@@H]2CC(=O)c3c(O)cc(O)cc3O2)cc1O` [Hesperetin] showed an inhibition at 10 µM [1, 5] of 13.8%.
In the case of `O=c1c(O)c(-c2ccc(O)c(O)c2)oc2cc(O)cc(O)c12` [Quercetin], the inhibition at 10 µM [1, 5] is reported as 41.3%.
For `O=c1c(O)c(-c2cc(O)c(O)c(O)c2)oc2cc(OCC3CCCC3)cc(O)c12` [compound 6, 7-O-cyclopentylmethyl-myricetin], the IC50 ([1]; read-out: IC50) was 2.23 µM and 2.28 µM and 2.8 µM and 2.48 µM.
`COc1cc(-c2oc3cc(O)cc(O)c3c(=O)c2O)ccc1O` [Isorhamnetin] was tested, and the inhibition at 10 µM [1, 5] was -2.6%.
